The results in this text go back to patent publication US10189795B2, “Aryl amine substituted quinoxaline used as anticancer drugs” (priority 2014, dated 2019).

Assay [1] concerns PP2A. The assay can be described thus: PP2A phosphatase activity (malachite green-phosphate assay in cell lysate). It counts as cell-based. As to the method: The protein phosphatase activity in each cell lysate was determined by measuring the generation of free phosphate from threonine phosphopeptide using the malachite green-phosphate complex assay as described by the manufacturer (Upstate Biotechnology, Lake Placid, N.Y., USA). In brief, HCC cell lysates were first prepared in a low-detergent lysis buffer. […] After incubation for 10 min at 30° C., the malachite dye was added and free phosphate was measured by optical density at 650 nm. In order to avoid variation resulting from differences in the amount of immunoprecipitation protein between samples, the phosphatase activities were normalized to the amounts of PP2A immunoprecipitated, which were detected and quantified by immunoblot analysis for each treatment group.

In assay [2] the test system is H520. The assay can be described thus: cell viability of H520 cells, 1 and 10 uM. It counts as cell-based. The note with it: Homo sapiens, NCI-H520. As to the method: [Worded in the source for another cell line; this cell line is reported under the same test.] (§1) Sorafenib (Nexavar), erlotinib (Tarceva) and Paclitaxel were kindly provided by Bayer Pharmaceuticals (Pittsburgh, Pa., USA) and Roche Pharmaceuticals (Basel, Switzerland) respectively. Okadaic acid (OA) was purchased from Cayman Chemical (Ann Arbor, Mich., USA) and z-VAD-fmk was obtained from Sigma (St. Louis, Mo., USA). For in vitro studies, drugs at various concentrations were dissolved in dimethyl sulfoxide (DMSO), and added to cells in Dulbecco's modified Eagle's medium (DMEM) or Roswell Park Memorial Institute (RPMI) containing 5% fetal bovine serum (FBS).
(§2) The Sk-Hep1, PLC/PRF/5 (PLC) and Hep3B cell lines were obtained from American Type Culture Collection (ATCC; Manassas, Va., USA). The Huh-7 HCC cell line was obtained from the Health Science Research Resources Bank (HSRRB; Osaka, Japan; JCRB0403). Cells were maintained in DMEM supplemented with 10% FBS in a 37° C. humidified incubator in an atmosphere of 5% CO^2 in air.

Assay [3] deals with H358. The assay can be described thus: cell viability of H358 cells, 1 and 10 uM. It counts as cell-based. The settings on record: Homo sapiens, NCI-H358. On the procedure:
[Worded in the source for another cell line; this cell line is reported under the same test.] as §1, §2

Assay [4] has as its system SW900. The assay can be described thus: cell viability of SW900 cells, 1 and 10 uM. It counts as cell-based. The note with it: Homo sapiens. As to the method: [Worded in the source for another cell line; this cell line is reported under the same test.] as §1, §2
Assay [5] has as its system A549. Briefly: cell viability of A549 cells, 1 and 10 uM. It counts as cell-based. The note with it: Homo sapiens. On the procedure: [Worded in the source for another cell line; this cell line is reported under the same test.] as §1, §2
The subject of assay [6] is H2170. Briefly: cell viability of H2170 cells, 1 and 10 uM. It counts as cell-based. The settings on record: Homo sapiens, NCI-H2170. As to the method: [Worded in the source for another cell line; this cell line is reported under the same test.] as §1, §2
Assay [7] has as its system NCI-1703. The assay can be described thus: cell viability of NCI-1703 cells, 1 and 10 uM of each erlotinib derivative, and IC50. It counts as cell-based. The settings on record: Homo sapiens. As to the method: [Worded in the source for another cell line; this cell line is reported under the same test.] as §1, §2
For assay [8], the system named is NCI-H226. Briefly: cell viability of NCI-H226 cells, 1 and 10 uM. It counts as cell-based. The settings on record: Homo sapiens. As to the method: [Worded in the source for another cell line; this cell line is reported under the same test.] as §1, §2
Assay [9] addresses T1, SET-PP2Ac binding (Homo sapiens, UniProt Q01105).
T1 construct: His; purchased Genway (SET-His); Abnova (PP2Ac-GST) GWB-ATG319; H00005515
Briefly: disruption of SET-PP2Ac binding (surface plasmon resonance, co-IP). On the procedure:
Binding affinities of full-length SET and truncated SET to PP2Ac and the effect of the erlotinib derivatives of the present invention on disrupting SET and PP2Ac were analyzed. PP2Ac-GST recombinant protein was bound in the CMS chip pre-coated with GST-capture antibodies. Sensorgrams were generated by injecting several concentrations of the erlotinib derivatives of the present invention mixed with fixed-concentration of SET recombinant protein, or the mixture of different concentration of truncated SET proteins in a fixed-dose EMQA. PP2Ac-GST recombinant protein used for this experiment was purchased from Abnova (H00005515) and SET-His recombinant protein was obtained from Genway (GWB-ATG319).
EMQA reactivates PP2A by disrupting the binding of SET-PP2Ac. To validate the role of SET, the present invention generated Hep3B cells with ectopic expression of myc-tagged SET by transient transfection. […] With a fixed amount of PP2Ac coated on the CM chip, the present invention tested the effects of a fixed-dose of EMQA on interfering different proportions of full-length and truncated forms of SET proteins in SPR system. […] To validate the findings of this ex vivo system, the present invention generated cells with ectopic overexpression of these two truncated forms of Flag-tagged SET proteins by transient transfections.

T1 sequence (Q01105 1-277 isoform Q01105-2): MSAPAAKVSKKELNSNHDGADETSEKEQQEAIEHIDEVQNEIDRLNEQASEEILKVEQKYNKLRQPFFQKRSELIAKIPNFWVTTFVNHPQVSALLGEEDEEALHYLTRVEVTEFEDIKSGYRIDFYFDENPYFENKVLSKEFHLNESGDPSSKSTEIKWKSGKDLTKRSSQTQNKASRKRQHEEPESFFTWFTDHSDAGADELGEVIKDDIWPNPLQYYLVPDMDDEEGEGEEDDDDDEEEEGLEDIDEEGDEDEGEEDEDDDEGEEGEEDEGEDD

`FC(F)(F)c1cc(Nc2nc3ccccc3nc2Nc2ccc(Cl)c(C(F)(F)F)c2)ccc1Cl` [TD63, N^2,N^3-bis(4-chloro-3-(trifluoromethyl)phenyl)quinoxaline-2,3-diamine]: the “minimal concentration for PP2A activation” value in assay [1] is 100 to 200 nM. In addition, the viability (in general, a read-out of living cells in per cent, often relative to untreated cells) at 1 µM in assay [2] was 28.5 ± 0.58%; in [3], 66.8 ± 8.5%; in [4], 54.8 ± 3.35%; in assay [5], 79.2 ± 7.8%; in assay [6], 78.5 ± 1.28%; in assay [7] it was 54.5 ± 5.5%. Besides, in assay [8], the viability at 1 µM amounted to 99.9 ± 4.3%. Moreover, the viability at 10 µM in assay [2] is 0.45 ± 0.14%; in assay [3], 16.2 ± 1.3%; in [4] it was 3.28 ± 4.63%; in [5], 21.9 ± 2.2%; in [6] it was 9.13 ± 0.63%; in assay [7] it was 28.8 ± 7.9%. Besides, the viability at 10 µM in assay [8] was found to be 19.6 ± 0.4%. Also, the “minimal concentration to disrupt SET-PP2Ac binding” value in [9] was less than 100 nM.

As for `FC(F)(F)Oc1ccc(Nc2nc3ccccc3nc2Nc2ccc(OC(F)(F)F)cc2)cc1` [TD65, N^2,N^3-bis(4-(trifluoromethoxy)phenyl)quinoxaline-2,3-diamine], the “minimal concentration for PP2A activation” value in [1] was 50 to 100 nM. For the same compound, the viability at 1 µM in assay [2] was 18.5 ± 1.23%; in [3] it was 27.1 ± 1.2%; in assay [4], 0.73 ± 1.32%; in [5] it was 66.4 ± 6.9%; in [6], 77.9 ± 3.48%; in assay [7], 53.2 ± 2.3%. In assay [8], the viability at 1 µM was 46.2 ± 2.5%. The viability at 10 µM in assay [2] is 0.47 ± 0.06%; in [3], 18.3 ± 3%; in [5], 27.7 ± 2%; in [6] it was 0.26 ± 0.1%; in assay [7], 26.3 ± 1%; in assay [8] it was 14.1 ± 1.3%. Also, in assay [9], the “minimal concentration to disrupt SET-PP2Ac binding” value is recorded as less than 100 nM.

As to `FS(F)(F)(F)(F)c1ccc(Nc2nc3ccccc3nc2Nc2ccc(S(F)(F)(F)(F)F)cc2)cc1` [TD68, N^2,N^3-bis(4-(Pentafluorothio)phenyl)quinoxaline-2,3-diamine], the “minimal concentration for PP2A activation” value in assay [1] is less than 50 nM. Also, the viability at 1 µM was 10.1 ± 0.85% in [2]; 22.4 ± 1.8% in [3]; 3.38 ± 4.64% in assay [4]; 57.3 ± 19.1% in assay [5]; 69.39 ± 0.67% in assay [6]; 48.6 ± 2% in assay [7]. For the same compound, the viability at 1 µM in [8] is 40.2 ± 0.3%. Moreover, the viability at 10 µM in [2] is 0.47 ± 0.11%; in assay [3] it was 16.7 ± 0.8%; in assay [4] it was 0.57 ± 0.22%; in assay [5] it was 32.9 ± 4%; in assay [6] it was 0.17 ± 0.16%; in assay [7], 33.3 ± 7.1%. Further, the viability at 10 µM in assay [8] is 14.8 ± 0.3%. Also, the “minimal concentration to disrupt SET-PP2Ac binding” value in [9] turned out to be 50 nM.

For the compound `Clc1cc(Cl)cc(Nc2nc3ccccc3nc2Cl)c1` [TD78, 3-chloro-N-(3,5-dichlorophenyl)quinoxalin-2-amine], in assay [1], the “minimal concentration for PP2A activation” value is given as more than 200 nM. For the same compound, the viability at 1 µM is 108.5 ± 0.14% in assay [2]; 98.7 ± 4.6% in assay [3]; 102 ± 6.69% in [4]; 77.6 ± 5.8% in assay [5]; 111 ± 1.69% in assay [6]; 70.6 ± 8.2% in [7]. For the same compound, the viability at 1 µM in assay [8] came out at 118 ± 2.2%. For the same compound, the viability at 10 µM in assay [2] amounted to 108 ± 2.23%; in assay [3] it was 90.8 ± 7.4%; in assay [4], 84.1 ± 1.12%; in [5], 94.7 ± 11.3%; in assay [6], 93.09 ± 0.66%; in assay [7] it was 73.2 ± 14.1%. Further, the viability at 10 µM in [8] amounted to 111 ± 12.9%. Also, the “minimal concentration to disrupt SET-PP2Ac binding” value in assay [9] fell in the range of 100 to 200 nM.

In the case of `FC(F)(F)c1cc(Nc2nc3ccccc3nc2Cl)ccc1Cl` [TD79, 3-chloro-N-(4-chloro-3-(trifluoromethyl)phenyl)quinoxalin-2-amine], the viability at 1 µM in assay [2] is 96.6 ± 5.57%; in assay [3], 114 ± 2.4%; in assay [4] it was 98.9 ± 3.79%; in assay [5], 96.5 ± 4.4%; in assay [6], 98.5 ± 1.56%; in assay [7] it was 123.7 ± 0.9%. Also, the viability at 1 µM in assay [8] amounted to 131 ± 14.3%. In addition, the viability at 10 µM in assay [2] amounted to 99 ± 6.01%; in assay [3] it was 87.7 ± 1.8%; in assay [4] it was 88.2 ± 19.9%; in [5], 71.6 ± 10.1%; in [6], 102 ± 5.66%; in assay [7], 64.8 ± 4.5%. Moreover, the viability at 10 µM in assay [8] was 125 ± 10.5%.

With `COc1ccc(Nc2nc3ccc([N+](=O)[O-])cc3nc2Nc2ccc(OC)cc2)cc1` [TD602, N^2,N^3-bis(4-methoxyphenyl)-6-nitroquinoxaline-2,3-diamine], the viability at 1 µM in assay [2] is 104 ± 2.31%; in [3], 58.3 ± 9.2%; in assay [4], 120 ± 5.8%; in assay [5] it was 47.4 ± 2.4%; in assay [6], 112 ± 3.97%; in assay [7], 42 ± 1.1%. Moreover, the viability at 1 µM in [8] stood at 98.1 ± 5.9%. For the same compound, the viability at 10 µM in [2] was 0.89 ± 0.41%; in assay [3], 12 ± 0.5%; in assay [4] it was 2.05 ± 2.45%; in [5], 10 ± 0.8%; in assay [6], 7.14 ± 4.42%; in [7], 9.8%. In addition, the viability at 10 µM in assay [8] amounted to 8.1 ± 0.4%.

As to `COc1ccc(Nc2nc3ccc([N+](=O)[O-])cc3nc2Nc2cccc(O)c2)cc1` [TD612, 3-(2-(4-methoxyphenylamino)-6-nitroquinoxalin-3-ylamino)phenol], in assay [1], the “minimal concentration for PP2A activation” value was less than 100 nM. The viability at 1 µM in assay [2] is 107 ± 2.62%; in assay [3] it was 97.3 ± 13.4%; in [4], 105 ± 3.4%; in [5], 90.6 ± 18.2%; in [6], 107 ± 4.84%; in [7], 82.7 ± 2.4%. The viability at 1 µM in [8] was 69.4 ± 6.8%. Besides, the viability at 10 µM turned out to be 12.9 ± 1.2% in assay [2]; 12.8 ± 0.4% in assay [3]; 64.7 ± 4% in assay [4]; 10.3 ± 1.2% in [5]; 22.5 ± 11.8% in [6]; 13.4 ± 0.7% in assay [7]. In addition, the viability at 10 µM in assay [8] is 38 ± 1.4%.

With `O=[N+]([O-])c1ccc2nc(Nc3cccc(O)c3)c(Nc3cccc(O)c3)nc2c1` [TD613, 3-(2-(3-hydroxyphenylamino)-6-nitroquinoxalin-3-ylamino)phenol], the viability at 1 µM in assay [2] was determined as 99.45 ± 0.5%; in [3], 69.9 ± 60.7%; in [4] it was 116 ± 7.2%; in [5], 105 ± 3.4%; in assay [6], 108 ± 1.99%; in assay [7] it was 86 ± 0.5%. Besides, the viability at 1 µM in assay [8] was 75.5 ± 7.9%. For the same compound, the viability at 10 µM is 18.8 ± 0.22% in assay [2]; 12 ± 0.5% in assay [3]; 80.9 ± 3.8% in [4]; 9.5 ± 0.7% in assay [5]; 11.6 ± 1.38% in [6]; 24.8 ± 2% in [7]. Moreover, the viability at 10 µM in assay [8] was found to be 7 ± 0.3%.

As for `O=[N+]([O-])c1ccc2nc(Nc3cccc(Br)c3)c(Nc3cccc(Br)c3)nc2c1` [TD618, N^2,N^3-bis(3-bromophenyl)-6-nitroquinoxaline-2,3-diamine], the “minimal concentration for PP2A activation” value in assay [1] was more than 200 nM. In addition, the viability at 1 µM in assay [3] came out at 36.6 ± 1.6%; in [5], 53.2 ± 6.3%; in assay [7], 48.3 ± 4.8%; in assay [8] it was 49.6 ± 9.4%. The viability at 10 µM in [3] worked out at 20.4 ± 3.5%; in assay [5], 26.9 ± 7%; in assay [7], 31.9 ± 5%; in assay [8], 16.7 ± 1.1%. Also, the “minimal concentration to disrupt SET-PP2Ac binding” value in assay [9] is more than 200 nM.
